In patent publication US6821954B2, “Compounds and uses thereof in treating bone disorders” (Auckland UniServices Limited, priority 1997, dated 2004):
Bridge positions count the residues as written; N and C are the ends. Ends that are not written are not given here. Peptide text beside a SMILES is read from it.

How the values were obtained:
fetal rat osteoblasts = experiment: Osteoblast proliferation studies (cell counts and [3H]-thymidine incorporation) in osteoblast-like cell culture; type: cell-based; conditions: for effect on osteoblast cell number / effect on thymidine incorporation / proliferative effect on osteoblasts: 10^−9 M; for effect on osteoblast cell number: 24 h incubation; for effect on osteoblast cell number / effect on thymidine incorporation: FIG. 1; for effect on thymidine incorporation: last two hours of 24 h incubation; for EC50: read-out: half-maximally effective concentration on cell number; for proliferative effect on osteoblasts: cell number and thymidine incorporation; for concentration that completely blocked the proliferative effect of intact amylin: intact amylin 10^−9 M, cell number, FIG. 4; for blocking of the action of intact amylin on cell number / blocking of the action of intact amylin on thymidine incorporation: equimolar concentrations (10^−9 M), FIG. 5, FIG. 9; for blocking of the effects of amylin-(1-8) on osteoblast proliferation: equimolar concentrations
Procedure: Osteoblasts were isolated by collagenase-digestion from 20-day fetal rat calvariae. Calvariae were dissected aseptically and the frontal and parietal bones were stripped of their periosteum. only the central portions of the bones, free from sutrue tissue, were collected. The calvariae were treated twice with phosphate buffered saline (PBS) containing 3 mM EDTA (pH 7.4) for 15 minutes at 37E C. in a shaking water bath. After washing once in PBS, the calvariae were treated twice with 3 ml of 1 mg/ml collagenase for 7 minutes at 37E C. After discarding the supernatants from digestions I and II, the calvariae were treated a further twice with 3 ml of 2 mg/ml collagenase (30 mins, 37E C.). The supernatants of digestions III and IV were pooled, centrifuged, and the cells washed in Dulbecco's modified Eagle's medium (DME) with 10% fetal calf serum (FCS), suspended in further DME/10% FCS and placed in 75 cm^2 flasks. The cells were incubated under 5% CO2 and 95% air at 37E C. Confluence was reached by 5-6 days, at which time the cells were subcultured. After trypsinization using trypsin-EDTA (0.05%/0.53 mM), the cells were rinsed in minimum essential medium (MEM) with 5% FCS and resuspended in fresh medium, the seeded at 5×10^4 cells/ml in 24-well plates (0.5 ml cell suspension per well, i.e. 2.5×10^4 cells/well).
Proliferation studies (cell counts and thymidine incorporation) were performed in subconfluent cell populations, 24 h after subculturing cells were changed to serum-free medium with 0.1% bovine serum albumin plus the experimental compounds. Cell numbers were analysed 24 hours after addition of the peptide or vehicle by detaching cells form the wells by exposure to trypsin/EDTA (0.05%/0.53 mM) for approximately 5 minutes at 37E C. Counting was performed in a hemocytometer chamber. Results are expressed per well. [^3H]-Thymidine incorporation into actively-growing and growth-arrested cells was assessed by pulsing the cells with [^3H]-thymidine ([…]) two hours before the end of the experimental incubation. Experiments were terminated at 24 hours by washing the cells in MEM followed by the addition of 10% trichloroacetic acid. The precipitate was washed twice with ethanol:ether (3:1) and the wells desiccated at room temperature. The residue was redissolved in 2 M KOH at 55E C. for 30 mins, neutralized with 1 M HCI, and an aliquot counted for radioactivity. Results are expressed as dpm per well. For cell counts and thymidine incorporation, each experiment was performed at least four different times using experimental groups consisting of at least six wells.

neonatal mouse calvariae = experiment: Bone resorption in bone organ culture (45Ca release); type: cell-based; conditions: for effect on basal bone resorption: 10^−8 M, calcium release, FIG. 6
Procedure: Bone resorption studies were carried out in neonatal mouse calvariae as described previously. Mice were injected subcutaneously with […] at 2 days of age, and hemicalvariae were dissected out four days later. Hemicalvariae were pre-incubated for 24 hours in medium 199 with 0.1% bovine serum albumin, then changed to fresh medium containing peptide or vehicle. Incubation was continued for a further 48 hours. There were 5-7 hemicalvariae in each group.

[1] = Catabolism of peptides in calvarial organ culture (pre-incubation, then test on osteoblast proliferation); type: in vitro ADME, mouse; conditions: for effect of pre-incubation for two hours on osteoblastic activity: pre-incubation in calvarial organ culture 2 hours; for effect of pre-incubation for two hours on osteoblastic activity / osteoblastic activity after pre-incubation for four or more hours: cell number or thymidine incorporation, FIG. 7; for osteoblastic activity after pre-incubation for four or more hours: pre-incubation in calvarial organ culture four or more hours; for ability to block amylin's stimulation of osteoblast proliferation after pre-incubation: pre-incubation with calvariae for six hours, FIG. 8
Procedure: To determine whether the various peptide fragments underwent significant catabolism in organ culture, they were incubated with calvariae before being added to osteoblast cultures. The organ cultures were set up using hemicalvariae from animals that had not be pretreated with ^45Ca. The fragments or vehicle were incubated with the calvariae for 2, 4, or 6 hours. Extracts of the media were removed then immediately added to osteoblast cultures for measurement of their effects on osteoblast proliferation, as described above.

osteoblasts = conditions: background section; cited from earlier work
[2] = listed as amylin (1-8) with 2 to 7 disulphide bond removed

| Molecule | effect on osteoblast cell number (fetal rat osteoblasts) | effect on thymidine incorporation (fetal rat osteoblasts) | EC50 (fetal rat osteoblasts; 24 h, FIG. 2) | effect on basal bone resorption (neonatal mouse calvariae) | effect of pre-incubation for two hours on osteoblastic activity [1] | osteoblastic activity after pre-incubation for four or more hours [1] | concentration that completely blocked the proliferative effect of intact amylin (fetal rat osteoblasts) | ability to block amylin's stimulation of osteoblast proliferation after pre-incubation [1] | proliferative effect on osteoblasts (fetal rat osteoblasts) | blocking of the action of intact amylin on cell number (fetal rat osteoblasts) | blocking of the action of intact amylin on thymidine incorporation (fetal rat osteoblasts) | also measured |
| --- | --- | --- | --- | --- | --- | --- | --- | --- | --- | --- | --- | --- |
| C[C@H](NC(=O)[C@@H]1CSSC[C@H](NC(=O)[C@@H](N)CCCCN)C(=O)N[C@@H](CC(N)=O)C(=O)N[C@@H]([C@@H](C)O)C(=O)N[C@@H](C)C(=O)N[C@@H]([C@@H](C)O)C(=O)N1)C(N)=O [Amylin-(1-8), Lysine-c[cysteine-asparagine-threonine-alanine-threonine-cysteine]-alanine-NH2] (H-KCNTATCA-NH2; disulfide 2-7) | consistently stimulated | consistently stimulated | 0.24 nM | lack of effect | no effect | completely lost their activity |  |  |  |  |  | effect on osteoblast cell number (fetal rat osteoblasts; listed as (1-8) fragment): stimulated both indices; effect on thymidine incorporation (fetal rat osteoblasts; listed as (1-8) fragment): stimulated both indices; concentrations at which the maximal effect on cell number was seen (fetal rat osteoblasts; 24 h, FIG. 2): ≥ 10^−9 M; maximal effect on cell number compared with intact amylin (fetal rat osteoblasts; 24 h, FIG. 2): not significantly less than that produced by the intact molecule; proliferative effect on osteoblasts (fetal rat osteoblasts; listed as Amylin (1-8)): active; proliferative effect on osteoblasts (fetal rat osteoblasts; listed as amylin-(1-8)): stimulates osteoblast proliferation; effect on bone resorption, multiple additions (neonatal mouse calvariae; additions at 0, 8 and 30 hours, data not shown): did not influence bone resorption |
| Amylin-(8-37): rat amylin fragment 8-37; functions as an amylin antagonist in other tissues |  |  |  |  |  |  | ≥ 10^−10 M | decreased their ability to block |  |  |  |  |
| Amylin: 37-amino acid peptide co-secreted with insulin from the beta cells of the pancreatic islets; rat amylin used | significant increase | significant increase | 0.02 nM | inhibited basal bone resorption | no effect | completely lost their activity |  |  |  |  |  | concentrations giving dose-dependent stimulation of osteoblast proliferation (osteoblasts): ≥ 10^−11 M |
| CGRP-(8-37): the comparable (8-37) peptide fragment from CGRP (calcitonin gene-related peptide) (VTHRLAGLLSRSGGVVKNNFVPTNVGSKAF; ends and bridges not checked) |  |  |  |  |  |  | > 10^−8 M |  |  |  |  |  |
| Reduced Amylin: Rat amylin reduced with dithiothreitol (2-7 disulphide removed) |  |  |  |  |  |  |  | decreased their ability to block | no proliferative effect | effective blockers | effective blockers |  |
| Reduced amylin (1-8): amylin (1-8) reduced with dithiothreitol, 2 to 7 disulphide bond removed (KCNTATCA; Islet amyloid polypeptide reduced, disulphide removed; UniProt P12969 38-45, looked up, fragment) |  |  |  |  |  |  |  |  | no proliferative effect | effective blocker | effective blocker | proliferative effect on osteoblasts (fetal rat osteoblasts; [2]): inactive; blocking of the effects of amylin-(1-8) on osteoblast proliferation (fetal rat osteoblasts): effective blocker; blocking of the effects of amylin-(1-8) on osteoblast proliferation (fetal rat osteoblasts; [2]): blocks the activity of amylin (1-8); blocking of amylin's inhibition of bone resorption (neonatal mouse calvariae; with amylin): did not act as a blocker |
